This note sets out measurements from patent publication US11046686B2, “Thiadiazole IRAK4 compounds” (Gilead Sciences, Inc., priority 2018, dated 2021).

Each structure is given as a SMILES string. Read-outs that look alike come from different tables or passages of the source.

One test has as its target IRAK4 enzyme (Homo sapiens (Human), UniProt Q9NWZ3). The experiment in a line: IRAK4 Biochemical Assay (TR-FRET, STK1 KinEASE). An outline of the steps: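 TR-FRET endpoint (KinEASE STK1): phosphopeptide detected with cryptate antibody and tracer after EDTA quench, ratio 665/615 nm, normalized to no-inhibitor wells as % inhibition. Reaction: 0.75 nM IRAK4, […] peptide, 500 μM ATP, pH 7.0 HEPES, 120 min room temperature, after 15 min compound preincubation with enzyme.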
(TR-FRET usually uses a lanthanide donor and a delayed reading to cut background.)

For a further test, the system named is TNFα. Nature of the test: IRAK4 Monocyte TNFα Cell Based Assay. Details: species or system human. To be noted: human monocytes. Put shortly: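 TNFα release quantified by HTRF (cryptate/XL665 antibody pair, overnight at RT) after 1 h compound pre-incubation (0.1% DMSO) and 4 h LPS challenge at 50 pg/ml, 37 °C, 5,000 monocytes per well. Signal ratio normalised between unstimulated (0%) and stimulated (100%) controls.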

[1] abbreviates: Homo sapiens, Monocyte, second part of Table 2, compounds 33-343, unit inferred, read-out: EC50 MONO TNF HTRF.
Where [2] appears, read: second part of Table 2, compounds 33-343, unit inferred, read-out: IC50 IRAK4-HTBS.
Where [3] appears, read: second part of Table 2, compounds 33-343, unit inferred, read-out: EC50 MONO TNF HTRF.
[4] abbreviates: compounds 1-32, read-out: IC50 HTRF.
Setting [5] is: Homo sapiens, Monocyte, LPS stimulated, compounds 1-32, read-out: EC50 TNF.

IRAK4 enzyme, sequence (Q9NWZ3 whole entry): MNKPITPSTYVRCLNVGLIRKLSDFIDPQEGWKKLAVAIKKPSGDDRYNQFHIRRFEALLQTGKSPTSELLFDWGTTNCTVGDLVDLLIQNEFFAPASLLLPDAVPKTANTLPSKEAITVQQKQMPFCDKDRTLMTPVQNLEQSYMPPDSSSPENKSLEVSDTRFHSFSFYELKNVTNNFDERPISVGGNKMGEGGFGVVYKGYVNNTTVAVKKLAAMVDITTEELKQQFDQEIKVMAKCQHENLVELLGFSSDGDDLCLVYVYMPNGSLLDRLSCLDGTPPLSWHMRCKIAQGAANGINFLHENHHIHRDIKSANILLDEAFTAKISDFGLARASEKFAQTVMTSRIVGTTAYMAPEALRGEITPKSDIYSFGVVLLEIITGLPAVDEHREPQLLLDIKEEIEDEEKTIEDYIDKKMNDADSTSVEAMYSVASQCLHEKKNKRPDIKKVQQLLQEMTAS

`CC(=O)N1C[C@H]2C[C@@H]1CN2c1nnc(-c2cnc(-c3ccc4cc(C#N)cnn34)cc2NC(C)C)s1` [Example 303, 7-(5-(5-((1R,4R)-5-acetyl-2,5-diazabicyclo[2.2.1]heptan-2-yl)-1,3,4-thiadiazol-2-yl)-4-(isopropylamino)pyridin-2-yl)pyrrolo[1,2-b]pyridazine-3-carbonitrile]: the IC50 (as a rule, the concentration that gives 50% inhibition) at IRAK4 enzyme was 0.51 nM. The EC50 (commonly the concentration needed to bring the measured effect to its halfway point) in the test on TNFα (setting [1]) came to 12.5 nM.

Consider `CC(=O)NC1CN(c2nnc(-c3cnc(-c4ccc5cc(C#N)cnn45)cc3NC(C)C)s2)C1` [Example 33, N-(1-(5-(6-(3-cyanopyrrolo[1,2-b]pyridazin-7-yl)-4-(isopropylamino)pyridin-3-yl)-1,3,4-thiadiazol-2-yl)azetidin-3-yl)acetamide], for which inhibition on IRAK4 enzyme was half-maximal at 0.49 nM (IC50). Moreover, the EC50 in the test on TNFα (setting [1]) is 3970 nM.

On to `CNC(=O)[C@@H]1CCCN1c1nnc(-c2cnc(-c3ccc4cc(C#N)cnn34)cc2NC2COC2)s1` [Compound 332], for which the IC50 on IRAK4 enzyme (setting [2]) came to 1.61 nM. Further, the EC50 in the test with TNFα (setting [3]) is 435 nM.

Take `CC(C)Nc1cc(-c2ccc3cc(C#N)cnn23)ncc1-c1nnc(N2CCN3CCOC[C@H]3C2)s1` [Example 36, (R)-7-(5-(5-(hexahydropyrazino[2,1-c][1,4]oxazin-8(1H)-yl)-1,3,4-thiadiazol-2-yl)-4-(isopropylamino)pyridin-2-yl)pyrrolo[1,2-b]pyridazine-3-carbonitrile]: the IC50 on IRAK4 enzyme turned out to be 0.48 nM. In the test with TNFα (setting [1]), the EC50 came to 5 nM.

Take `CC(=O)N1CCN(C(=O)c2nnc(-c3cnc(-c4ccc5cc(C#N)cnn45)cc3NC(C)C)s2)CC1` [Example 10, 7-(5-(5-(4-acetylpiperazine-1-carbonyl)-1,3,4-thiadiazol-2-yl)-4-(isopropylamino)pyridin-2-yl)pyrrolo[1,2-b]pyridazine-3-carbonitrile]: the IC50 at IRAK4 enzyme (setting [4]) was < 1 nM. Also, the EC50 in the test with TNFα (setting [5]) came out at 157 nM.

As for `CC(=O)N[C@H]1CC[C@H](c2nnc(-c3cnc(-c4ccc5cc(C#N)cnn45)cc3NC3COC3)s2)CC1` [Example 21, N-((1r,4r)-4-(5-(6-(3-cyanopyrrolo[1,2-b]pyridazin-7-yl)-4-(oxetan-3-ylamino)pyridin-3-yl)-1,3,4-thiadiazol-2-yl)cyclohexyl)acetamide], at IRAK4 enzyme (setting [4]), the IC50 was < 1 nM. Moreover, the EC50 with TNFα (setting [5]) stood at 10 nM.

On to `C[C@]1(O)CC[C@@H](c2nnc(-c3cnc(-c4ccc5cc(C#N)cnn45)cc3NC3COC3)s2)CC1` [Example 208, 7-(5-(5-((1s,4s)-4-hydroxy-4-methylcyclohexyl)-1,3,4-thiadiazol-2-yl)-4-(oxetan-3-ylamino)pyridin-2-yl)pyrrolo[1,2-b]pyridazine-3-carbonitrile], for which the IC50 at IRAK4 enzyme (setting [2]) stood at 0.67 nM. The EC50 in the test on TNFα (setting [3]) stood at 13.6 nM.

As to `CNC(=O)C1CCN(c2nnc(-c3cnc(-c4ccc5cc(C#N)cnn45)cc3NC(C)C)s2)CC1` [Example 305, 1-(5-(6-(3-cyanopyrrolo[1,2-b]pyridazin-7-yl)-4-(isopropylamino)pyridin-3-yl)-1,3,4-thiadiazol-2-yl)-N-methylpiperidine-4-carboxamide], the IC50 against IRAK4 enzyme came out at 1.02 nM. Also, in the test on TNFα (setting [1]), the EC50 stood at 15.9 nM.

In the case of `CC1(O)CCN(c2nnc(-c3cnc(-c4ccc5cc(C#N)cnn45)cc3NC3CCOCC3)s2)CC1` [Example 188, 7-(5-(5-(4-hydroxy-4-methylpiperidin-1-yl)-1,3,4-thiadiazol-2-yl)-4-((tetrahydro-2H-pyran-4-yl)amino)pyridin-2-yl)pyrrolo[1,2-b]pyridazine-3-carbonitrile], the IC50 against IRAK4 enzyme was found to be 1.07 nM. The EC50 in the test with TNFα (setting [1]) is 7.6 nM.

Take `CC(=O)N[C@H]1CC[C@@H](c2nnc(-c3cnc(-c4ccc5cc(C#N)cnn45)cc3NC(C)C)s2)CC1` [Example 127, N-((1s,4s)-4-(5-(6-(3-cyanopyrrolo[1,2-b]pyridazin-7-yl)-4-(isopropylamino)pyridin-3-yl)-1,3,4-thiadiazol-2-yl)cyclohexyl)acetamide]: on IRAK4 enzyme (setting [2]), the IC50 amounted to 0.64 nM. Also, in the test with TNFα (setting [3]), the EC50 was 9.9 nM.

For the compound `CC(=O)N[C@H]1CC[C@H](c2nnc(-c3cnc(-c4ccc5cc(C#N)cnn45)cc3NC3(C)COC3)s2)CC1` [Example 3, N-((1r,4r)-4-(5-(6-(3-cyanopyrrolo[1,2-b]pyridazin-7-yl)-4-((3-methyloxetan-3-yl)amino)pyridin-3-yl)-1,3,4-thiadiazol-2-yl)cyclohexyl)acetamide], on IRAK4 enzyme (setting [4]), the IC50 was < 1 nM. For the same compound, the EC50 in the test with TNFα (setting [5]) stood at 15 nM.

On IRAK4 enzyme, `CC(=O)NC1[C@@H]2COC[C@H]1CN(c1nnc(-c3cnc(-c4ccc5cc(C#N)cnn45)cc3NC(C)C)s1)C2` (stereo partly drawn) [Example 193, N-((1R,5S)-7-(5-(6-(3-cyanopyrrolo[1,2-b]pyridazin-7-yl)-4-(isopropylamino)pyridin-3-yl)-1,3,4-thiadiazol-2-yl)-3-oxa-7-azabicyclo[3.3.1]nonan-9-yl)acetamide] returned an IC50 of 0.68 nM. In addition, the EC50 in the test on TNFα (setting [1]) came to 4.1 nM.

Consider `CC(=O)NC1CCN(c2nnc(-c3cnc(-c4ccc5cc(C#N)cnn45)cc3NC(C)C)s2)CC1` [Example 6, N-(1-(5-(6-(3-cyanopyrrolo[1,2-b]pyridazin-7-yl)-4-(isopropylamino)pyridin-3-yl)-1,3,4-thiadiazol-2-yl)piperidin-4-yl)acetamide], for which the IC50 on IRAK4 enzyme (setting [4]) was < 1 nM. In the test with TNFα (setting [5]), the EC50 was determined as 19 nM.

Compound `CC(C)Nc1cc(-c2ccc3cc(C#N)cnn23)ncc1-c1nnc(CC(=O)O)s1` [Example 319, 2-(5-(6-(3-cyanopyrrolo[1,2-b]pyridazin-7-yl)-4-(isopropylamino)pyridin-3-yl)-1,3,4-thiadiazol-2-yl)acetic acid] came in with an IC50 against IRAK4 enzyme of 1.68 nM. Further, the EC50 with TNFα (setting [1]) was 126 nM.

Compound `CC(=O)N[C@@H]1CC[C@@H](c2nnc(-c3cnc(-c4ccc5cc(C#N)cnn45)cc3NC(C)C)s2)OC1` [Example 81, N-((3R,6S)-6-(5-(6-(3-cyanopyrrolo[1,2-b]pyridazin-7-yl)-4-(isopropylamino)pyridin-3-yl)-1,3,4-thiadiazol-2-yl)tetrahydro-2H-pyran-3-yl)acetamide] registered an IC50 against IRAK4 enzyme of 0.66 nM. Further, in the test on TNFα (setting [1]), the EC50 was found to be 21.4 nM.

In the case of `CC(C)Nc1cc(-c2ccc3cc(C#N)cnn23)ncc1-c1nnc(CCN)s1` [Example 212, 7-(5-(5-(2-aminoethyl)-1,3,4-thiadiazol-2-yl)-4-(isopropylamino)pyridin-2-yl)pyrrolo[1,2-b]pyridazine-3-carbonitrile], the IC50 on IRAK4 enzyme (setting [2]) turned out to be 1.01 nM. Also, the EC50 with TNFα (setting [1]) came out at 305 nM.

For the compound `CNc1cc(-c2ccc3cc(C#N)cnn23)ncc1-c1nnc([C@H]2CC[C@H](NC(C)=O)CC2)s1` [Example 22, N-((1r,4r)-4-(5-(6-(3-cyanopyrrolo[1,2-b]pyridazin-7-yl)-4-(methylamino)pyridin-3-yl)-1,3,4-thiadiazol-2-yl)cyclohexyl)acetamide], the IC50 on IRAK4 enzyme (setting [4]) was < 1 nM. The EC50 with TNFα (setting [5]) was found to be 25 nM.

The compound `CC(=O)NC1CCN(c2nnc(-c3cnc(-c4ccc5cc(C#N)cnn45)cc3NC(C)C)s2)CC1(F)F` (stereo not drawn) [Compound 251, N-(1-(5-(6-(3-cyanopyrrolo[1,2-b]pyridazin-7-yl)-4-(isopropylamino)pyridin-3-yl)-1,3,4-thiadiazol-2-yl)-3,3-difluoropiperidin-4-yl)acetamide] showed a concentration for half-maximal inhibition (IC50) at IRAK4 enzyme of 0.48 nM. The EC50 with TNFα (setting [1]) came out at 4.4 nM.
